Data published in US10766862B2, “Crystal form and salt form of and preparation method for tyrosine kinase inhibitor” (GUANGDONG RAYNOVENT BIOTECH CO., LTD., priority 2016, dated 2020).

Key:
[1] = biological target: T1, VEGFR2 (Homo sapiens, UniProt P35968); experiment: Z'-LYTE Detection Kinase Assay, VEGFR2 enzyme reaction; type: biochemical
T1 construct: purchased Life technology
From the text: (§1) It is to evaluate the inhibitory effect of the compound on three kinases VEGFR2, FGFR1, PDGFRB by detecting the enzyme activity in accordance with Z′-LYTE™ Detection Kinase Assay and using the ICso value of the compound as the index.
(§2) Recombinant human VEGFR2 and FGFR1 proteins are purchased from Life technology, and PDGFRB proteinase is purchased from Millipore.
(§3) Z-LYTE™ Kit Tyr1 and Tyr4 are purchased from Life technology.
(§4) Read with Multimode Microplate Reader Envision (PerkinElmer).
(§5) The compound to be test was subject to a 3-fold concentration gradient dilution to 11 final concentrations ranging from 10 μM to 0.17 nM 11 with two duplicate wells per concentration. The concentration of DMSO was 1% in the test reaction.
3 nM VEGFR2 protein kinase, 2 μM Tyr1 peptide, 100 μM ATP, 50 mM HEPES (pH 7.5), 10 mM MgCl2, 1 mM EGTA, 0.01% BRIJ-35. The test plate is Black Proxiplate 384-Plus plate (PerkinElmer). The reaction runs at room temperature for 60 minutes, and the reaction system is 10 μL.
(§6) 5 μL of DV reagent B (1:128) was added to the kinase reaction mixture to stopped the reaction. The reaction mixture was incubated at 23° C. for 60 minutes, and read by Envision.
(§7) The data were converted to the phosphorylation rate and the inhibition rate. The parameter curve was fitted (Model 205 in XLFIT5, iDBS) to obtain the ICso data of the compound.

[2] = biological target: T2, FGFR1 (Homo sapiens, UniProt P11362); experiment: Z'-LYTE Detection Kinase Assay, FGFR1 enzyme reaction; type: biochemical
T2 construct: purchased Life technology
T2 sequence (P11362 22-822): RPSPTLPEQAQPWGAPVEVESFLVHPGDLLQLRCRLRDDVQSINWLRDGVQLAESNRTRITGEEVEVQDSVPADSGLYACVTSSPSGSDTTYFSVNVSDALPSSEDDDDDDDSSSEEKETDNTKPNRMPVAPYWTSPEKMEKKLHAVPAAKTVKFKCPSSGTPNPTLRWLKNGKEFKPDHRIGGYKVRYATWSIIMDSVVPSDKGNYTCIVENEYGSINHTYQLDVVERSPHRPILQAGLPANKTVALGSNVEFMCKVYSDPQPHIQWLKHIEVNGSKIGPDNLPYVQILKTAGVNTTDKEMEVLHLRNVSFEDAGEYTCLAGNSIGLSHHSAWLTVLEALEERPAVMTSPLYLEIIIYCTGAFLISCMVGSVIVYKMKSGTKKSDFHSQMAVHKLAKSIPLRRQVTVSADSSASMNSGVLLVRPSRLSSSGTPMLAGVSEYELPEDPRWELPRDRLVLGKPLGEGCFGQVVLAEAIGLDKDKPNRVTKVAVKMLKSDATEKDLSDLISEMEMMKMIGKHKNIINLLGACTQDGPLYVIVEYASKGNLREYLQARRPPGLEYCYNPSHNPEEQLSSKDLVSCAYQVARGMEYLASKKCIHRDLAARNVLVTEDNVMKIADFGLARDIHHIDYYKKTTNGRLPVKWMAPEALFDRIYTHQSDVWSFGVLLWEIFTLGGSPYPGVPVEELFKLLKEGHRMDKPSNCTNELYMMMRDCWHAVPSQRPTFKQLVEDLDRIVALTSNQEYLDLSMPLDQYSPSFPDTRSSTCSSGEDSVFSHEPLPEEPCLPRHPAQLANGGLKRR
From the text: as §1, §2, §3, §4, §5
1 nM FGFR1 protein kinase, 2 μM Tyr4 peptide, 25 μM ATP, 50 mM HEPES (pH 7.5), 10 mM MgCl2, 1 mM EGTA, 0.01% BRIJ-35, 2 mM MnCl2, 1 mM DTT. The test plate is Black Proxiplate 384-Plus plate (PerkinElmer). The reaction runs at room temperature for 60 minutes, and the reaction system is 10 μL.
as §6, §7

[3] = biological target: T3, PDGFRB (Homo sapiens, UniProt P09619); experiment: Z'-LYTE Detection Kinase Assay, PDGFRB enzyme reaction; type: biochemical
T3 construct: purchased Millipore
T3 sequence (P09619 33-1106): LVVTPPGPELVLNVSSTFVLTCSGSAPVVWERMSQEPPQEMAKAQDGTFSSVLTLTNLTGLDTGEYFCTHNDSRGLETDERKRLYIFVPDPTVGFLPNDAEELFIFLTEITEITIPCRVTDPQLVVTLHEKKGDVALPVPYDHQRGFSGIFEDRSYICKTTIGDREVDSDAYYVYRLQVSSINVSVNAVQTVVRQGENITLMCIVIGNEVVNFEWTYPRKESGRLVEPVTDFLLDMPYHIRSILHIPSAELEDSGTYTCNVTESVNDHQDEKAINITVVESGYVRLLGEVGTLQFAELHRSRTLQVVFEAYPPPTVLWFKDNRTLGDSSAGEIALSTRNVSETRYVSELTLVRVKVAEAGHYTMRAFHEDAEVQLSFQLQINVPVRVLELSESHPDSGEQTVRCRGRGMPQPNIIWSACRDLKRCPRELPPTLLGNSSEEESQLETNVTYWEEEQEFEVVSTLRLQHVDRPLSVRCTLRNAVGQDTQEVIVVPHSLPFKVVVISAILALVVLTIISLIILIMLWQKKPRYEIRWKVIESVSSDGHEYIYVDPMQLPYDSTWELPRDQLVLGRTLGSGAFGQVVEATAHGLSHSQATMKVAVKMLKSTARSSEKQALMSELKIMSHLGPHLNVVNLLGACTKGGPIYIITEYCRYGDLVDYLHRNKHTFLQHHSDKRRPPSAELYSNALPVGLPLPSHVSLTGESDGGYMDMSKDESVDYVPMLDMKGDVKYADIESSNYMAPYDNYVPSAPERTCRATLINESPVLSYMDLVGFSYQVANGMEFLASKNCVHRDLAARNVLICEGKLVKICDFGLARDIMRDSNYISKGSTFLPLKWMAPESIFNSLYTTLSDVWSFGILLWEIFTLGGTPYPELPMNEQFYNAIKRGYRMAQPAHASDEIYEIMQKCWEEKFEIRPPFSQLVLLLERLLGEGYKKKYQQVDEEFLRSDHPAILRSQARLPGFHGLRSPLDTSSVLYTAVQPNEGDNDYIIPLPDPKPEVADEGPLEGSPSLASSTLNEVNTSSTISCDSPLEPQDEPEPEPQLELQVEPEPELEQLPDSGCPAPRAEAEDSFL
From the text: as §1, §2, §3, §4, §5
40 nM PDGFRB protein kinase, 2 μM Tyr4 peptide, 100 μM ATP, 50 mM HEPES (pH 7.5), 10 mM MgCl2, 1 mM EGTA, 0.01% BRIJ-35, 2 mM MnCl2, 1 mM DTT. The test plate is Black Proxiplate 384-Plus plate (PerkinElmer). The reaction runs at room temperature for 60 minutes, and the reaction system is […].
as §6, §7

[4] = test system: HUVEC; experiment: CellTiter-Glo Luminescent Cell Viability Assay on HUVEC stimulated with hVEGF-165; type: cell-based; conditions: Homo sapiens, hVEGF-165 20 ng/ml, 72 hr
Method: It is to detect the intracellular ATP change by CellTiter-Glo® Luminescent Cell Viability Assay, and evaluate the inhibitory effect of the compound on in vitro cell HUVEC with ICso value of the compound as the index.
HUVEC cell lines (ATCC), EGM-2 BulletKit (Lonza), hVEGF-165 (Cell Signaling), pancreatin (Invitrogen), DPBS (Hyclone), 384-well cell plate (Greiner), 384-well compound plate (Greiner), CO2 incubator (Thermo), centrifuger (Eppendorf), Vi-cell Cell Count (Beckman Coulter), Bravo Automated Liquid Handing Platform (Agilent), Envision (Perkin Elmer)
Test Method • A. Cells recovery and growth. • B. Cell planking: HUVEC cells were re-suspended with a fasted media (containing only 2% FBS and 0.1% GA-1000), and diluted to a concentration of 20,000/mL. The diluted cells were added into 384-well plate (Greiner) with 50 μL/well. The cell plate was placed in an incubator containing 5% CO2 at 37° C. overnight. • C. Compound Addition: The compound to be tested was subject to a 4-fold gradient dilution to 10 samples having a final concentration ranging from 10 μM to 0.038 nM with two duplicate wells per concentration. […] The mixture was incubated at room temperature for 10-30 minutes, and read with Envision. […]

[5] = 100 μM ATP, 60 minutes, room temperature

T1 sequence (P35968 20-1356): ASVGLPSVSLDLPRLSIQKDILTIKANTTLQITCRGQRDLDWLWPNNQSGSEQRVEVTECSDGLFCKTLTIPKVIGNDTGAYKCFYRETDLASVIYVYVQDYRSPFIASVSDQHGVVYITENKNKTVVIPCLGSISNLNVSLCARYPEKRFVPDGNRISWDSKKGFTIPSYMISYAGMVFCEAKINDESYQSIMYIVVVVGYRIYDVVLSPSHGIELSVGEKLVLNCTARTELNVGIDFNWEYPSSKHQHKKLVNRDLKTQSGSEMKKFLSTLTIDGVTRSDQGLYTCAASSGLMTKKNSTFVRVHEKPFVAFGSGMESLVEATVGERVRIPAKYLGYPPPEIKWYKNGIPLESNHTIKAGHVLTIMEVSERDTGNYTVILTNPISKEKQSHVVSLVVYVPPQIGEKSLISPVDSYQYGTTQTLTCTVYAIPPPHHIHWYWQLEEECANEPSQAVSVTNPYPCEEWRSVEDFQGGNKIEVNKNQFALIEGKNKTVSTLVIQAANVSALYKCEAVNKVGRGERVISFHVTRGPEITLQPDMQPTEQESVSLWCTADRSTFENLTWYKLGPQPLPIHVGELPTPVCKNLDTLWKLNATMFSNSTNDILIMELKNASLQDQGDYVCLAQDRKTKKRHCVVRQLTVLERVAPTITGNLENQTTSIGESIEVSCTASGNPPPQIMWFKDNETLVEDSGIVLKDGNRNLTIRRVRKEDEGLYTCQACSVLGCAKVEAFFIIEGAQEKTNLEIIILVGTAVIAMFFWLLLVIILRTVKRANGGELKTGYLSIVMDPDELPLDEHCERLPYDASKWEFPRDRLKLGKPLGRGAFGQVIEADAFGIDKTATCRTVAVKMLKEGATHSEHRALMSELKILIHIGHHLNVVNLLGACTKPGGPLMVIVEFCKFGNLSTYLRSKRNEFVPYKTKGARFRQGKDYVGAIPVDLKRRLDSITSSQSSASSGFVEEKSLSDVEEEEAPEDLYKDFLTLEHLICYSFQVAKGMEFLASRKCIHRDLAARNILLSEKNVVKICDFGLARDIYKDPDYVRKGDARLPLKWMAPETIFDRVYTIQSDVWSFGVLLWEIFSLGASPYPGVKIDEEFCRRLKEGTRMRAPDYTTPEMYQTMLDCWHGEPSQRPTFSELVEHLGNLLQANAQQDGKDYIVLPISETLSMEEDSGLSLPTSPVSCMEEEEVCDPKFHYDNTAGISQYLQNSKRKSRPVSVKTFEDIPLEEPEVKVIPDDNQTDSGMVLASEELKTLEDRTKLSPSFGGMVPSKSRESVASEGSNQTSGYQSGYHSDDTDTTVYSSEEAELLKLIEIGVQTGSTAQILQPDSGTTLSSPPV

COc1cc2nccc(Oc3ccc(NC(=S)NC4CC4)c(Cl)c3F)c2cc1C(N)=O [Compound 1]
Inhibitory activity on VEGFR2 in vitro, conclusion in words [1]: superior inhibitory activity
IC50 [1, 5]: < 50 nM
Inhibitory activity on FGFR1 in vitro, conclusion in words [2]: superior inhibitory activity
IC50 ([2]; 25 μM ATP, 60 minutes, room temperature): 50 to 200 nM
Inhibitory activity on PDGFRB in vitro, conclusion in words [3]: superior inhibitory activity
IC50 [3, 5]: < 50 nM
IC50 [4]: < 100 nM
